Measured values reported in US8338465B2, “Cyclic carboxylic acid rhodanine derivatives for the treatment and prevention of tuberculosis” (priority 2006, dated 2012).

target: T1, dihydrolipoamide acyltransferase (DlaT) (Mycobacterium tuberculosis, UniProt P9WIS7); assay: DlaT inhibition (Dlat IC50); DTNB peroxidase assay with Lpd, DlaT and AhpD; format: biochemical; conditions: Dlat IC50 category
T1 sequence (P9WIS7 1-553): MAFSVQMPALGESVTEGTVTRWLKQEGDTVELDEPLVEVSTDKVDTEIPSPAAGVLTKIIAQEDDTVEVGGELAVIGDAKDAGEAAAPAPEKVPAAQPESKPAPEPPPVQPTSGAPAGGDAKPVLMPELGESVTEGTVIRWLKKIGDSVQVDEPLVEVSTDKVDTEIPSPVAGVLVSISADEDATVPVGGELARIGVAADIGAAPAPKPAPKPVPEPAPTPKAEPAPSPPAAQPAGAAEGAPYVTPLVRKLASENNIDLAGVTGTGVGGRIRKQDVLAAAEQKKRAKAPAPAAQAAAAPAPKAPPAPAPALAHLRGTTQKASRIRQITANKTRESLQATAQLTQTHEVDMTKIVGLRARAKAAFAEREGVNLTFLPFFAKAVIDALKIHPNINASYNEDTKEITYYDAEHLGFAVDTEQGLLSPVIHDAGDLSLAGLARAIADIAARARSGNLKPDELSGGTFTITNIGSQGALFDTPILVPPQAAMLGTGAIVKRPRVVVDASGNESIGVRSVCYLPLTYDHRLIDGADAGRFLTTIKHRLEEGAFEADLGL

| SMILES | IC50 |
| --- | --- |
| O=C(O)CCN1C(=O)C(=Cc2ccc(-c3cccc(C(F)(F)F)c3)o2)SC1=S [Compound B3] | < 10 µM |
| O=C(O)CCN1C(=O)C(=Cc2ccc(-c3ccccc3C(F)(F)F)o2)SC1=S [Compound B4] | 11 to 40 µM |
| O=C(O)CCN1C(=O)C(=Cc2ccc(-c3ccccc3Cl)o2)SC1=S [Compound B5] | 11 to 40 µM |
| O=C(O)CN1C(=O)C(=Cc2ccc(-c3ccccc3Cl)o2)SC1=S [Compound B6] | 11 to 40 µM |
| O=C(O)CCN1C(=O)C(=Cc2cccc(-c3ccccc3Cl)n2)SC1=S [Compound B7] | 41 to 80 µM |
| O=C(O)C(c1ccccc1)N1C(=O)C(=Cc2cccc(-c3ccccc3Cl)n2)SC1=S (centres unmarked) [Compound B8] | 11 to 40 µM |
| O=C(O)C(c1ccccc1)N1C(=O)C(=Cc2ccc(-c3ccc(Cl)cc3)o2)SC1=S (centres unmarked) [Compound B9] | < 10 µM |
| O=C(O)C(c1ccccc1)N1C(=O)C(=Cc2ccc(-c3ccc(Cl)c(Cl)c3)o2)SC1=S (centres unmarked) [Compound B10] | < 10 µM |
| O=C(O)CCCCCN1C(=O)C(=Cc2ccc(-c3ccccc3Cl)o2)SC1=S [Compound B11] | < 10 µM |
| O=C(O)CCCCCN1C(=O)C(=Cc2ccc(-c3cccc(Cl)c3)o2)SC1=S [Compound B12] | < 10 µM |
| O=C(O)CCCCCN1C(=O)C(=Cc2ccc(-c3ccc(Cl)cc3)o2)SC1=S [Compound B13] | < 10 µM |
| O=C(O)CCCCCN1C(=O)C(=Cc2ccc(-c3ccc(Cl)c(Cl)c3)o2)SC1=S [Compound B14] | < 10 µM |
| O=C(O)CCCCCN1C(=O)C(=Cc2cccc(-c3ccccc3Cl)n2)SC1=S [Compound B15] | 11 to 40 µM |
| O=C(O)CN1C(=O)C(=Cc2ccc(-c3ccc(-c4ccccc4)cc3)o2)SC1=S [Compound B16] | < 10 µM |
| O=C(O)CCN1C(=O)C(=Cc2ccc(-c3ccc(-c4ccccc4)cc3)o2)SC1=S [Compound B17] | 11 to 40 µM |
| O=C(O)CCCCCN1C(=O)C(=Cc2ccc(-c3ccc(-c4ccccc4)cc3)o2)SC1=S [Compound B18] | < 10 µM |
| O=C(O)C(c1ccccc1)N1C(=O)C(=Cc2ccc(-c3ccc(-c4ccccc4)cc3)o2)SC1=S (centres unmarked) [Compound B19] | < 10 µM |
| O=C(O)CCCCCN1C(=O)C(=Cc2ccc(-c3cc(C(F)(F)F)ccc3Cl)o2)SC1=S [Compound B20] | < 10 µM |
| COc1ccc(-c2ccc(C=C3SC(=S)N(CCCCCC(=O)O)C3=O)o2)cc1Cl [Compound B21] | 11 to 40 µM |
| O=C(O)CCCCCN1C(=O)C(=Cc2ccc(-c3cccc(C(F)(F)F)c3)o2)SC1=S [Compound B22] | < 10 µM |
| O=C(O)CCCCCN1C(=O)C(=Cc2ccc(-c3ccccc3C(F)(F)F)o2)SC1=S [Compound B23] | 11 to 40 µM |
| O=C(O)CCCCCN1C(=O)C(=Cc2ccc(-c3ccccc3OC(F)(F)F)o2)SC1=S [Compound B24] | < 10 µM |
| O=C(O)C(c1ccccc1)N1C(=O)C(=Cc2ncc(-c3cccc(C(F)(F)F)c3)s2)SC1=S (centres unmarked) [Compound B25] | < 10 µM |
| O=C(O)CCN1C(=O)C(=Cc2ccc(-c3ccc(O)cc3)o2)SC1=S [Compound B26] | 41 to 80 µM |

| SMILES | IC50 |
| --- | --- |
| O=C(O)CCCCCN1C(=O)C(=Cc2ccc(-c3ccc(O)cc3)o2)SC1=S [Compound B27] | < 10 µM |
| O=C(O)C(c1ccccc1)N1C(=O)C(=Cc2ccc(-c3ccc(Oc4ccccc4)cc3)o2)SC1=S (centres unmarked) [Compound B28] | 11 to 40 µM |
| O=C(O)C(c1ccccc1)N1C(=O)C(=Cc2ccc(-c3ccc(O)cc3)o2)SC1=S (centres unmarked) [Compound B29] | 11 to 40 µM |
| O=C(O)CN1C(=O)C(=Cc2ccc(-c3ccc(Cc4ccccc4)cc3)o2)SC1=S [Compound B30] | < 10 µM |
| O=C(O)CCN1C(=O)C(=Cc2ccc(-c3ccc(Cc4ccccc4)cc3)o2)SC1=S [Compound B31] | < 10 µM |
| O=C(O)C(c1ccccc1)N1C(=O)C(=Cc2ccc(-c3ccc(Cc4ccccc4)cc3)o2)SC1=S (centres unmarked) [Compound B32] | < 10 µM |
| O=C(O)CCCCCN1C(=O)C(=Cc2ccc(-c3ccc(Cc4ccccc4)cc3)o2)SC1=S [Compound B33] | 11 to 40 µM |
| O=C(O)CCCCCN1C(=O)C(=Cc2ncc(-c3cccc(Cl)c3)o2)SC1=S [Compound B34] | 11 to 40 µM |
| O=C(O)C(c1ccccc1)N1C(=O)C(=Cc2ncc(-c3cccc(Cl)c3)o2)SC1=S (centres unmarked) [Compound B35] | 11 to 40 µM |
| O=C(O)[C@@H](c1ccccc1)N1C(=O)C(=Cc2ccc(-c3ccc(Cl)cc3)o2)SC1=S [Compound B36] | < 10 µM |
| O=C(O)[C@H](c1ccccc1)N1C(=O)C(=Cc2ccc(-c3ccc(Cl)cc3)o2)SC1=S [Compound B37] | < 10 µM |
| O=C(O)C(c1ccccc1)N1C(=O)C(=Cc2cc(-c3cccc(C(F)(F)F)c3)co2)SC1=S (centres unmarked) [Compound B38] | < 10 µM |
| O=C(O)CCCCCN1C(=O)C(=Cc2cc(-c3cccc(C(F)(F)F)c3)co2)SC1=S [Compound B39] | 11 to 40 µM |
| O=C(O)C(Cc1ccccc1)N1C(=O)C(=Cc2ccc(-c3cccc(C(F)(F)F)c3)o2)SC1=S (centres unmarked) [Compound B40] | < 10 µM |
| O=C(O)C(Cc1ccccc1)N1C(=O)C(=Cc2ccc(-c3ccccc3Cl)o2)SC1=S (centres unmarked) [Compound B41] | < 10 µM |
| O=C(O)C(Cc1ccccc1)N1C(=O)C(=Cc2ccc(-c3ccc(Cl)cc3)o2)SC1=S (centres unmarked) [Compound B42] | < 10 µM |
| O=C(O)CN1C(=O)C(=Cc2ccc(-c3ccc(Cl)cc3Cl)o2)SC1=S [Compound B43] | < 10 µM |
| O=C(O)C(c1ccccc1)N1C(=O)C(=Cc2ccc(-c3ccc(Cl)cc3Cl)o2)SC1=S (centres unmarked) [Compound B44] | < 10 µM |
| O=C(O)C(Cc1ccccc1)N1C(=O)C(=Cc2ccc(-c3ccc(Cl)cc3Cl)o2)SC1=S (centres unmarked) [Compound B45] | < 10 µM |
| O=C(O)C(c1ccccc1)N1C(=O)C(=Cc2ccc(-c3cc(Cl)ccc3Cl)o2)SC1=S (centres unmarked) [Compound B46] | < 10 µM |
| O=C(O)C(Cc1ccccc1)N1C(=O)C(=Cc2ccc(-c3cc(Cl)ccc3Cl)o2)SC1=S (centres unmarked) [Compound B47] | < 10 µM |
| O=C(O)C(c1ccccc1)N1C(=O)C(=Cc2ccc(-c3c(Cl)cccc3Cl)o2)SC1=S (centres unmarked) [Compound B48] | < 10 µM |
| O=C(O)C(Cc1ccccc1)N1C(=O)C(=Cc2ccc(-c3c(Cl)cccc3Cl)o2)SC1=S (centres unmarked) [Compound B49] | < 10 µM |
| O=C(O)C(c1ccccc1)N1C(=O)C(=Cc2ccc(-c3cccc(C(F)(F)F)c3)o2)SC1=S (centres unmarked) [Compound B50] | < 10 µM |

| SMILES | IC50 |
| --- | --- |
| O=C(O)C(Cc1ccc(O)cc1)N1C(=O)C(=Cc2ccc(-c3ccccc3Cl)o2)SC1=S (centres unmarked) [Compound B51] | < 10 µM |
| O=C(O)C(Cc1ccc(O)cc1)N1C(=O)C(=Cc2ccc(-c3cccc(C(F)(F)F)c3)o2)SC1=S (centres unmarked) [Compound B52] | < 10 µM |
| O=C(O)C(Cc1ccc(O)cc1)N1C(=O)C(=Cc2ccc(-c3ccc(Cl)cc3)o2)SC1=S (centres unmarked) [Compound B53] | < 10 µM |
| O=C(O)C(Cc1ccc(O)c(O)c1)N1C(=O)C(=Cc2ccc(-c3ccccc3Cl)o2)SC1=S (centres unmarked) [Compound B54] | 11 to 40 µM |
| O=C(O)C(Cc1ccc(O)c(O)c1)N1C(=O)C(=Cc2ccc(-c3cccc(C(F)(F)F)c3)o2)SC1=S (centres unmarked) [Compound B55] | < 10 µM |
| O=C(O)C(Cc1ccc(O)c(O)c1)N1C(=O)C(=Cc2ccc(-c3ccc(Cl)cc3)o2)SC1=S (centres unmarked) [Compound B56] | 11 to 40 µM |
| O=C(O)C(Cc1ccccc1)N1C(=O)C(=Cc2ccc(-c3ccc(Cc4ccccc4)cc3)o2)SC1=S (centres unmarked) [Compound B57] | < 10 µM |
| O=C(O)C(Cc1ccc(O)cc1)N1C(=O)C(=Cc2ccc(-c3ccc(Cc4ccccc4)cc3)o2)SC1=S (centres unmarked) [Compound B58] | < 10 µM |
| O=C(O)C(Cc1ccc(O)c(O)c1)N1C(=O)C(=Cc2ccc(-c3ccc(Cc4ccccc4)cc3)o2)SC1=S (centres unmarked) [Compound B59] | < 10 µM |
| O=C(O)CN1C(=O)C(=Cc2ccc(-c3ccc(Cl)cc3)o2)SC1=S [Compound B60] | 11 to 40 µM |
| O=C(O)CN1C(=O)C(=Cc2ccc(-c3cc(C(F)(F)F)ccc3Cl)o2)SC1=S [Compound B61] | < 10 µM |
| O=C(O)C(Cc1ccc(O)cc1)N1C(=O)C(=Cc2ccc(-c3cc(Cl)ccc3Cl)o2)SC1=S (centres unmarked) [Compound B62] | < 10 µM |
| O=C(O)C(Cc1ccc(O)cc1)N1C(=O)C(=Cc2ccc(-c3cc(C(F)(F)F)ccc3Cl)o2)SC1=S (centres unmarked) [Compound B63] | < 10 µM |
| O=C(O)C(Cc1ccc(O)c(O)c1)N1C(=O)C(=Cc2ccc(-c3cc(Cl)ccc3Cl)o2)SC1=S (centres unmarked) [Compound B64] | < 10 µM |
| O=C(O)C(Cc1ccc(O)c(O)c1)N1C(=O)C(=Cc2ccc(-c3cc(C(F)(F)F)ccc3Cl)o2)SC1=S (centres unmarked) [Compound B65] | < 10 µM |
| CC(C)c1ccc(-c2ccc(C=C3SC(=S)N(C(C(=O)O)c4ccccc4)C3=O)o2)cc1 (centres unmarked) [Compound B66] | < 10 µM |
| CC(C)c1ccc(-c2ccc(C=C3SC(=S)N(C(Cc4ccccc4)C(=O)O)C3=O)o2)cc1 (centres unmarked) [Compound B67] | < 10 µM |
| CC(C)c1ccc(-c2ccc(C=C3SC(=S)N(C(Cc4ccc(O)c(O)c4)C(=O)O)C3=O)o2)cc1 (centres unmarked) [Compound B68] | < 10 µM |
| O=C(O)CN1C(=O)C(=Cc2ccc(-c3ccc(C(=O)c4ccccc4)cc3)o2)SC1=S [Compound B69] | 11 to 40 µM |
| CC(C)c1ccc(-c2ccc(C=C3SC(=S)N(CC(=O)O)C3=O)o2)cc1 [Compound B70] | 11 to 40 µM |
| O=C(O)CN1C(=O)C(=Cc2ccc(-c3ccc(CSc4ccccc4)cc3)o2)SC1=S [Compound B71] | 11 to 40 µM |
| CC(C)c1cccc(-c2ccc(C=C3SC(=S)N(CC(=O)O)C3=O)o2)c1 [Compound B72] | < 10 µM |
| O=C(O)CN1C(=O)C(=Cc2ccc(-c3ccc(C4CCCCC4)cc3)o2)SC1=S [Compound B73] | < 10 µM |
